Data reported in patent publication US20260306476A1, “ANTIBACTERIAL COMPOUND PBT2” (priority 2022, published 2026).

Experiments:
[1] = system: Neisseria gonorrhoeae strain WHO Z; settings: strain phenotype; cited from earlier work
Neisseria gonorrhoeae = assay: Antibiotic resistance development test over 30 days; type: cell-based; settings: control; 30 days of treatment
Method: FIG. 2: Antibiotic resistance development assay of PBT2.
Resistance development was tested over a 30 day period with PBT2 and using Kanamycin as a control.

[2] = system: Neisseria gonorrhoeae ATCC49226; assay: MIC of PBT2 and comparators against CLSI reference strain; type: cell-based; settings: ATCC49226, comparator antimicrobials
Excerpt: 13 multidrug resistant WHO strains of Neisseria gonorrhoeae were selected to cover antimicrobial resistance phenotypes to all the antibiotics currently used.

[3] = system: Neisseria gonorrhoeae ATCC49226; settings: cited from earlier work
[4] = system: Neisseria gonorrhoeae strain WHO Z; assay: Ex vivo Neisseria gonorrhoeae infection of human cervical (Pex) cells; type: cell-based
Excerpt: FIG. 4: Chart indicating PBT2 can cure Neisseria gonorrhoeae infection of human cervical (Pex) cells. […] Ceftriaxone (CRO, positive control) is currently recommended for gonorrhoea treatment. Veh—0.1% DMSO vehicle control; UT—untreated; * p<0.0001 versus vehicle for CRO or PBT2 treatment.
To assess the ability of PBT2 to cure an established gonococcal infection in a human ex vivo system, primary human cervical epithelial (Pex) cells were challenged with Neisseria gonorrhoeae strain WHO Z for 90 min and then treated with 0.1% DMSO (vehicle control), PBT2 (0.016 mg/L to 4.695 mg/L), or ceftriaxone (0.5 mg/L, positive control) for 24 h. Viable gonococci were then enumerated. […] PBT2-induced Pex cell cytotoxicity was not observed during the assay.

[5] = system: Neisseria gonorrhoeae strain WHO Z; assay: MIC of Triton X-100 with/without PBT2; type: cell-based
Excerpt: Without wishing to be bound by theory, the inventors hypothesise that this may due to the fact PBT2 is a derivative of the iron chelator clioquinol and PBT2 has the capacity to chelate a range of heavy metals including iron. Genes encoding metal homeostasis proteins (blue dots) are presented in the volcano plot (FIG. 3). Metal homeostasis was previously identified as a crucial feature of gonococcal biology, and therefore it is postulated this may be an “Achilles' heel” with respect to Neisseria gonorrhoeae ionophore sensitivity. […] MpeR is an iron-repressed, AraC-like protein that regulates the mtr efflux locus (involved in antimicrobial susceptibility) in Neisseria gonorrhoeae. Up-regulation of mpeR (e. g. by PBT2) down-regulates MtrF and, in turn, would increase Neisseria gonorrhoeae sensitivity to the antimicrobial detergent, Triton X-100 (22). […] Thus, without wishing to be bound to theory, the inventors hypothesise that PBT2 may influence bacterial iron homeostasis and trigger general defence mechanisms, such as Mtr-mediated antimicrobial efflux, but the Mtr-system may be unable to protect against PBT2.

[6] = system: vancomycin-resistant Enterococcus (VRE); settings: in the absence of an antibiotic; cited from earlier work
[7] = system: methicillin-resistant Staphylococcus aureus (MRSA); settings: in the absence of an antibiotic; cited from earlier work
[8] = system: erythromycin-resistant group A Streptococcus (GAS); settings: in the absence of an antibiotic; cited from earlier work
[9] = system: Streptococcus uberis (S. uberis); settings: in the absence of an antibiotic; cited from earlier work

Compound: O=C(O)c1cn(C2CC2)c2cc(N3CCNCC3)c(F)cc2c1=O [Ciprofloxacin]
- resistance of WHO Z [1]: resistant

Compound: NC[C@H]1O[C@H](O[C@H]2[C@H](O)[C@@H](O[C@H]3O[C@H](CO)[C@@H](O)[C@H](N)[C@H]3O)[C@H](N)C[C@@H]2N)[C@H](O)[C@@H](O)[C@@H]1O [Kanamycin, reference compound]
- development of resistance to kanamycin (Neisseria gonorrhoeae): development of resistance

Compound: CN(C)[C@@H]1C(O)=C(C(N)=O)C(=O)[C@@]2(O)C(O)=C3C(=O)c4c(O)cccc4[C@@](C)(O)[C@H]3C[C@@H]12 [Tetracycline, reference compound]
- MIC ([2]; agar dilution): 0.25 mg/L
- MIC ([2]; broth dilution): 0.25 mg/L
- CLSI agar dilution MIC QC range [3]: 0.25 to 1 mg/L
- resistance of WHO Z [1]: resistant

Compound: CC[C@H]1OC(=O)[C@H](C)[C@@H](O[C@H]2C[C@@](C)(OC)[C@@H](O)[C@H](C)O2)[C@H](C)[C@@H](O[C@@H]2O[C@H](C)C[C@H](N(C)C)[C@H]2O)[C@](C)(O)C[C@@H](C)CN(C)[C@H](C)[C@@H](O)[C@]1(C)O [azithromycin]
- resistance of WHO Z [1]: resistant

Compound: C=CC1=C(C(=O)O)N2C(=O)[C@@H](NC(=O)/C(=N\OCC(=O)O)c3csc(N)n3)[C@H]2SC1 [cefixime]
- resistance of WHO Z [1]: resistant

Compound: CO/N=C(\C(=O)N[C@@H]1C(=O)N2C(C(=O)O)=C(CSc3nc(=O)c(=O)[nH]n3C)CS[C@H]12)c1csc(N)n1 [ceftriaxone, reference compound]
- susceptibility of WHO Z ([4]; ceftriaxone positive control (0.5 mg/L)): susceptible
- p versus vehicle ([4]; survival at 24 h, FIG. 4, CRO 0.5 mg/L): < 0.0001
- resistance of WHO Z [1]: resistant

Compound: CC1(C)S[C@@H]2[C@H](NC(=O)Cc3ccccc3)C(=O)N2[C@H]1C(=O)O [penicillin G]
- resistance of WHO Z [1]: resistant

Compound: Triton X-100
- MIC of Triton X-100 ([5]; in the presence of 0.156 mg/L (sub-MIC) PBT2): 125 mg/L
- MIC of Triton X-100 ([5]; without PBT2): > 1000 mg/L

Compound: zinc [reference compound]
- antibacterial activity [6]: neither PBT2 nor zinc alone displayed antibacterial activity which would be suitable to treat an infection
- antibacterial activity [7]: neither PBT2 nor zinc alone displayed antibacterial activity which would be suitable to treat an infection
- antibacterial activity [8]: neither PBT2 nor zinc alone displayed antibacterial activity which would be suitable to treat an infection
- antibacterial activity [9]: neither PBT2 nor zinc alone displayed antibacterial activity which would be suitable to treat an infection
